The record followed here is US10793520B2, “Sulfonylaminobenzamide compound and pest control agent” (Nippon Soda Co., Ltd., priority 2016, dated 2020).

Structures are written as SMILES.

The subject of the series is Mythimna separata. The series can be described thus: Efficacy test against Mythimna separata (treated artificial feed). Conditions: in vivo. On the procedure:
Five parts of the compound of the present invention, 93.6 parts of dimethylformamide and 1.4 parts of a polyoxyethylene alkyl aryl ether were mixed together and dissolved to obtain an emulsion (1) containing 5% of the active constituent.
The mortality rate was calculated using the following equation. Mortality rate (%)=(number of dead pests/number of test pests)×100
First, 0.8 g of an artificial feed (Insecta LFS, manufactured by Nosan Corporation) and 1 μl of the emulsion (I) were mixed thoroughly, and 0.2 g of the resulting mixture was placed in each of the treatment areas of a plastic test container (volume: 1.4 ml) to complete preparation of a test feed.
Two second-instar larvae of Mythimna separata were inoculated into each treatment area, and the test container was sealed with a plastic lid. The sealed container was placed in a temperature-controlled room at 25° C., and the mortality rate and the amount of feed consumed were determined on the fifth day. The test was repeated. Further, a test performed under the same conditions, but with the exception of excluding the compound of the present invention from the emulsion (1), was used as a control.
Turning to `COC(=O)c1cc(Br)c(F)cc1NC(=O)c1ccc(C(F)(F)F)cc1NS(=O)(=O)C(F)(F)F` [a-85], the “mortality rate against Mythimna separata, or amount of feed consumed relative to control” value is listed as 100%, or the amount of feed consumed was 10% or less.

Regarding `COC(=O)c1cc(F)c(F)cc1NC(=O)c1cc(Cl)c(Br)cc1NS(=O)(=O)C(F)(F)F` [a-132], the “mortality rate against Mythimna separata, or amount of feed consumed relative to control” value is listed as 100%, or the amount of feed consumed was 10% or less.

Turning to `CC(C)C(NC(=O)c1ccc(C(F)(F)F)cc1NS(=O)(=O)C(F)(F)F)c1ccc(Cl)cc1` (racemic) [b-3], the “mortality rate against Mythimna separata, or amount of feed consumed relative to control” value was 100%, or the amount of feed consumed was 10% or less.

Take `COC(=O)c1cc(C#N)ccc1NC(=O)c1ccc(C(F)(F)F)cc1NS(=O)(=O)C(F)(F)F` [a-67]: the “mortality rate against Mythimna separata, or amount of feed consumed relative to control” value was 100%, or the amount of feed consumed was 10% or less.

On to `COC(=O)c1cc([N+](=O)[O-])ccc1NC(=O)c1ccc(C(F)(F)F)cc1NS(=O)(=O)C(F)(F)F` [a-75], for which the “mortality rate against Mythimna separata, or amount of feed consumed relative to control” value was 100%, or the amount of feed consumed was 10% or less.

In the case of `O=C(Nc1ccc(OC(F)(F)F)cc1)c1ccc(-c2ccc(Cl)nc2)cc1NS(=O)(=O)C(F)(F)F` [a-32], the “mortality rate against Mythimna separata, or amount of feed consumed relative to control” value is 100%, or the amount of feed consumed was 10% or less.

`O=C(Nc1c(Cl)cc(C(F)(F)F)cc1Cl)c1ccc(C(F)(F)F)cc1NS(=O)(=O)C(F)(F)F` [a-18]: the “mortality rate against Mythimna separata, or amount of feed consumed relative to control” value is given as 100%, or the amount of feed consumed was 10% or less.

In the case of `O=C(Nc1ccc([N+](=O)[O-])cc1)c1ccc(C(F)(F)F)cc1NS(=O)(=O)C(F)(F)F` [a-50], the “mortality rate against Mythimna separata, or amount of feed consumed relative to control” value is given as 100%, or the amount of feed consumed was 10% or less.

`COC(=O)c1cc(OC(F)(F)F)ccc1NC(=O)c1cc(F)c(F)cc1NS(=O)(=O)C(F)(F)F` [a-110]: the “mortality rate against Mythimna separata, or amount of feed consumed relative to control” value is given as 100%, or the amount of feed consumed was 10% or less.

In the case of `COC(=O)c1cc([N+](=O)[O-])ccc1NC(=O)c1cc(F)c(F)cc1NS(=O)(=O)C(F)(F)F` [a-113], the “mortality rate against Mythimna separata, or amount of feed consumed relative to control” value is 100%, or the amount of feed consumed was 10% or less.

For the compound `O=C(NCc1ccc(Cl)cc1)c1ccc(C(F)(F)F)cc1NS(=O)(=O)C(F)(F)F` [b-1], the “mortality rate against Mythimna separata, or amount of feed consumed relative to control” value was 100%, or the amount of feed consumed was 10% or less.

Turning to `O=C(Nc1ccc(OC(F)(F)F)cc1)c1ccc(-n2cncn2)cc1NS(=O)(=O)C(F)(F)F` [a-31], the “mortality rate against Mythimna separata, or amount of feed consumed relative to control” value is reported as 100%, or the amount of feed consumed was 10% or less.

As for `COC(=O)c1c(NC(=O)c2ccc(C(F)(F)F)cc2NS(=O)(=O)C(F)(F)F)ccc(Br)c1F` [a-126], the “mortality rate against Mythimna separata, or amount of feed consumed relative to control” value was 100%, or the amount of feed consumed was 10% or less.

With `O=C(Nc1ccc(C(F)(F)F)cc1)c1cc(Cl)c(F)cc1NS(=O)(=O)C(F)(F)F` [a-129], the “mortality rate against Mythimna separata, or amount of feed consumed relative to control” value was 100%, or the amount of feed consumed was 10% or less.

For `O=C(Nc1ccc(OC(F)(F)F)cc1)c1ccc(-c2ccc(C(F)(F)F)nc2)cc1NS(=O)(=O)C(F)(F)F` [a-34], the “mortality rate against Mythimna separata, or amount of feed consumed relative to control” value is 100%, or the amount of feed consumed was 10% or less.

As to `COC(=O)c1cc(C(F)(F)F)ccc1NC(=O)c1ccc(C(F)(F)F)cc1NS(=O)(=O)C(F)(F)F` [a-58], the “mortality rate against Mythimna separata, or amount of feed consumed relative to control” value is on record as 100%, or the amount of feed consumed was 10% or less.

For `O=C(Nc1ccc(Cl)cc1)c1ccc(C(F)(F)F)cc1NS(=O)(=O)C(F)(F)F` [a-14], the “mortality rate against Mythimna separata, or amount of feed consumed relative to control” value is reported as 100%, or the amount of feed consumed was 10% or less.

As for `COC(=O)c1cc(I)ccc1NC(=O)c1ccc(C(F)(F)F)cc1NS(=O)(=O)C(F)(F)F` [a-62], the “mortality rate against Mythimna separata, or amount of feed consumed relative to control” value is reported as 100%, or the amount of feed consumed was 10% or less.

As for `CCC(=O)c1cc(C(F)(F)F)ccc1NC(=O)c1ccc(C(F)(F)F)cc1NS(=O)(=O)C(F)(F)F` [a-66], the “mortality rate against Mythimna separata, or amount of feed consumed relative to control” value was 100%, or the amount of feed consumed was 10% or less.

Consider `COC(=O)c1cc(F)c(F)cc1NC(=O)c1cc(Cl)c(Cl)cc1NS(=O)(=O)C(F)(F)F` [a-97], for which the “mortality rate against Mythimna separata, or amount of feed consumed relative to control” value is 100%, or the amount of feed consumed was 10% or less.

On to `O=C(Nc1ccc(OC(F)(F)F)cc1)c1ccc(-c2ccc(C(F)(F)F)cc2)cc1NS(=O)(=O)C(F)(F)F` [a-35], for which the “mortality rate against Mythimna separata, or amount of feed consumed relative to control” value is listed as 100%, or the amount of feed consumed was 10% or less.

As to `COC(=O)c1cc(C(F)(F)F)c(F)cc1NC(=O)c1ccc(C(F)(F)F)cc1NS(=O)(=O)C(F)(F)F` [a-86], the “mortality rate against Mythimna separata, or amount of feed consumed relative to control” value is reported as 100%, or the amount of feed consumed was 10% or less.

For `O=C(Nc1ccc(F)c(F)c1)c1cc(Br)c(Cl)cc1NS(=O)(=O)C(F)(F)F` [a-143], the “mortality rate against Mythimna separata, or amount of feed consumed relative to control” value was 100%, or the amount of feed consumed was 10% or less.

With `O=C(Nc1ccc(C(F)(F)F)cc1)c1cc(F)c(C(F)(F)F)cc1NS(=O)(=O)C(F)(F)F` [a-123], the “mortality rate against Mythimna separata, or amount of feed consumed relative to control” value is recorded as 100%, or the amount of feed consumed was 10% or less.

Take `COC(=O)c1cc(Cl)cc(Cl)c1NC(=O)c1ccc(C(F)(F)F)cc1NS(=O)(=O)C(F)(F)F` [a-71]: the “mortality rate against Mythimna separata, or amount of feed consumed relative to control” value is reported as 100%, or the amount of feed consumed was 10% or less.

For `O=C(Nc1ccc(OC(F)(F)F)cc1)c1ccc(-c2ccc(C(F)(F)F)cc2Cl)cc1NS(=O)(=O)C(F)(F)F` [a-42], the “mortality rate against Mythimna separata, or amount of feed consumed relative to control” value is 100%, or the amount of feed consumed was 10% or less.

As to `O=C(Nc1ccc(Br)c(Cl)c1)c1ccc(C(F)(F)F)cc1NS(=O)(=O)C(F)(F)F` [a-69], the “mortality rate against Mythimna separata, or amount of feed consumed relative to control” value is on record as 100%, or the amount of feed consumed was 10% or less.

For the compound `CN(c1cc(C(F)(F)F)ccc1C(=O)Nc1ccc(F)c(C(F)(F)F)c1)S(=O)(=O)C(F)(F)F` [a-21], the “mortality rate against Mythimna separata, or amount of feed consumed relative to control” value is reported as 100%, or the amount of feed consumed was 10% or less.

With `COC(=O)c1cc(Br)ccc1NC(=O)c1ccc(Br)cc1NS(=O)(=O)C(F)(F)F` [a-73], the “mortality rate against Mythimna separata, or amount of feed consumed relative to control” value was 100%, or the amount of feed consumed was 10% or less.

In the case of `O=C(Nc1ccc(C(F)(F)F)cc1[N+](=O)[O-])c1ccc(C(F)(F)F)cc1NS(=O)(=O)C(F)(F)F` [a-103], the “mortality rate against Mythimna separata, or amount of feed consumed relative to control” value is 100%, or the amount of feed consumed was 10% or less.

For the compound `N#Cc1ccc(NC(=O)c2ccc(C(F)(F)F)cc2NS(=O)(=O)C(F)(F)F)cc1` [a-39], the “mortality rate against Mythimna separata, or amount of feed consumed relative to control” value is 100%, or the amount of feed consumed was 10% or less.

Turning to `COC(=O)c1cnc(Cl)cc1NC(=O)c1ccc(C(F)(F)F)cc1NS(=O)(=O)C(F)(F)F` [a-96], the “mortality rate against Mythimna separata, or amount of feed consumed relative to control” value was 100%, or the amount of feed consumed was 10% or less.

Regarding `COC(=O)c1cc(F)c(F)cc1NC(=O)c1ccc(-c2ccc(C(F)(F)F)nc2)cc1NS(=O)(=O)C(F)(F)F` [a-100], the “mortality rate against Mythimna separata, or amount of feed consumed relative to control” value was 100%, or the amount of feed consumed was 10% or less.

For `O=C(Nc1ccc(C(F)(F)F)cc1)c1cc(F)c(F)cc1NS(=O)(=O)C(F)(F)F` [a-127], the “mortality rate against Mythimna separata, or amount of feed consumed relative to control” value is given as 100%, or the amount of feed consumed was 10% or less.

Regarding `CC(NC(=O)c1ccc(C(F)(F)F)cc1NS(=O)(=O)C(F)(F)F)c1ncc(C(F)(F)F)cc1Cl` (stereo not shown) [b-4], the “mortality rate against Mythimna separata, or amount of feed consumed relative to control” value is 100%, or the amount of feed consumed was 10% or less.

In the case of `O=C(Nc1ccnc(OCC(F)(F)F)c1)c1ccc(C(F)(F)F)cc1NS(=O)(=O)C(F)(F)F` [a-56], the “mortality rate against Mythimna separata, or amount of feed consumed relative to control” value was 100%, or the amount of feed consumed was 10% or less.

As for `COC(=O)c1cc(Cl)c(F)cc1NC(=O)c1ccc(C(F)(F)F)cc1NS(=O)(=O)C(F)(F)F` [a-90], the “mortality rate against Mythimna separata, or amount of feed consumed relative to control” value was 100%, or the amount of feed consumed was 10% or less.

As to `O=C(Nc1ccc(S(F)(F)(F)(F)F)cc1)c1ccc(C(F)(F)F)cc1NS(=O)(=O)C(F)(F)F` [a-28], the “mortality rate against Mythimna separata, or amount of feed consumed relative to control” value is listed as 100%, or the amount of feed consumed was 10% or less.

`O=C(Nc1ccc(Cl)c(Cl)c1)c1ccc(C(F)(F)F)cc1NS(=O)(=O)C(F)(F)F` [a-22]: the “mortality rate against Mythimna separata, or amount of feed consumed relative to control” value is recorded as 100%, or the amount of feed consumed was 10% or less.

With `CC(C)(NC(=O)c1ccc(C(F)(F)F)cc1NS(=O)(=O)C(F)(F)F)c1ccc(Cl)cc1` [b-2], the “mortality rate against Mythimna separata, or amount of feed consumed relative to control” value is on record as 100%, or the amount of feed consumed was 10% or less.

For `O=C(Nc1ccc(F)c(C(F)(F)F)c1)c1ccc(Cl)cc1NS(=O)(=O)C(F)(F)F` [a-41], the “mortality rate against Mythimna separata, or amount of feed consumed relative to control” value is recorded as 100%, or the amount of feed consumed was 10% or less.

On to `COC(=O)c1cc(F)c(F)cc1NC(=O)c1ccc(C(F)(F)F)cc1NS(=O)(=O)C(F)(F)F` [a-78], for which the “mortality rate against Mythimna separata, or amount of feed consumed relative to control” value is given as 100%, or the amount of feed consumed was 10% or less.

With `O=C(Nc1cc(C(F)(F)F)ccc1F)c1ccc(C(F)(F)F)cc1NS(=O)(=O)C(F)(F)F` [a-11], the “mortality rate against Mythimna separata, or amount of feed consumed relative to control” value is given as 100%, or the amount of feed consumed was 10% or less.
